{
  "source": "patent US7022716B2",
  "about": "“Cyclic amine phenyl beta-3 adrenergic receptor agonists” (Wyeth, priority 2000, dated 2006)",
  "data": [
    {"target": "T1, human β3 adrenergic receptor (Homo sapiens, UniProt P13945)", "T1 construct": "Full length β3 AR clones (402 amino acids) containing the last 6 amino acids of hβ3-AR are prepared; expressed in transfected cells; host or cells: CHO (Chinese hamster ovary) cells", "T1 sequence (P13945 whole entry)": "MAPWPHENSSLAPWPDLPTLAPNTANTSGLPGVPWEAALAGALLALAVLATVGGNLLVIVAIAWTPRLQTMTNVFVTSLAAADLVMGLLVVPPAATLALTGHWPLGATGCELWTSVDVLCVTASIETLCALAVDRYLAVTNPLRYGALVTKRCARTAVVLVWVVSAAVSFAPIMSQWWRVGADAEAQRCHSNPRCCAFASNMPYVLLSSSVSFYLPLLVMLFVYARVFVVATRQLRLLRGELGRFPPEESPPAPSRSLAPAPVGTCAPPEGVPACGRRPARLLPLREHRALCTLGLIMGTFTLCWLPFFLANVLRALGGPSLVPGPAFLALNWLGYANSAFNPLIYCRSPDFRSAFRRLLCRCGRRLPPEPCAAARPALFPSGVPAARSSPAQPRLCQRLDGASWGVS", "experiment": "cAMP (SPA) response in CHO cells transfected with human β3 adrenergic receptor", "format": "cell-based", "design": "key: fraction of maximal isoproterenol (10^-5 M) response", "settings": "maximal response relative to maximal response of isoproterenol at 10^-5 M", "experimental": "Binding to the receptors was measured in Chinese Hamster ovary (CHO) cells that were transfected with adrenergic receptors.\nThe corresponding primer sequences are described in Mantzoros, C. […] The four fragments are ligated into a pUC 18 plasmid (Gibco-BRL) and sequenced.\nCHO cells were grown in 24-well tissue culture plates in Dulbecco's Modified Eagle Media with 10% fetal bovine serum, MEM non-essential amino acids, Penicillin-Streptompycin and Geneticin. On the day of test procedure, growth medium was replaced with preincubation media (Dulbecco's Modified Eagle, Media) and incubated for 30 minutes at 37° C. […] Test compounds were tested over a concentration range of 10^−9 M to 10^−5 M for β3 cells and 10^−8 to 10^−4 M for β1 and β2 transfected cells. Isoproterenol (10^−5 M) was used as an internal standard for comparison of activity. Cells were incubated at 37° C. on a rocker for 30 min with the β3 cells and 15 min for β1 and β2 cells. Incubation was stopped with the addition of 0.2N HCl and neutralized with 2.5N NaOH. The plates, containing the cells and neutralized media, were stored at −20 degrees celsius until ready to test for cAMP using the SPA test kit (Amersham).\nData Analysis and Results: Data collected from the SPA test procedure were analyzed as percent of the maximal isoproterenol response at 10^−5 M. Activity curves were plotted using the SAS statistical and graphics software.", "values": [
      {"compound": "CC(=O)Nc1ccc(S(=O)(=O)Nc2ccc(N3CCC(NC[C@H](O)COc4ccc(O)c5c4CCC(=O)N5)CC3)cc2)cc1", "note": "[Example 307, N-[4-({4-[4-({(2S)-2-Hydroxy-3-[(8-hydroxy-2-oxo-1,2,3,4-tetrahydro-5-quinolin)oxy]propyl}amino)-1-piperidinyl]anilino}sulfonyl)phenyl]acetamide]", "IA(β3)": 1},
      {"compound": "O=c1[nH]c2cccc(OC[C@@H](O)CNC3CCN(c4ccc(NS(=O)(=O)c5ccc(Cl)cc5)cc4)CC3)c2[nH]1", "note": "[Example 331, 4-Chloro-N-{4-[4-({(2S)-2-hydroxy-3-[(2-oxo-2,3-dihydro-1H-benzimidazol-4-yl)oxy]propyl}amino)-1-piperidinyl]phenyl}benzenesulfonamide]", "IA(β3)": 1},
      {"compound": "CN(C)CC(=O)Nc1ccc(N2CCC(NC[C@H](O)COc3cccc4[nH]c(=O)[nH]c34)CC2)cc1", "note": "[Example 384, 2-(Dimethylamino)-N-{4-[4-({(2S)-2-hydroxy-3-[(2-oxo-2,3-dihydro-1H-benzimidazol-4-yl)oxy]propyl}amino)-1-piperidinyl]phenyl}acetamide]", "IA(β3)": 0.64},
      {"compound": "CC(C)[C@H](NC(=O)c1ccc(N2CCC(NC[C@H](O)c3ccc(O)c(NS(C)(=O)=O)c3)CC2)cc1)C(=O)O", "note": "[Example 203, (2S)-2-(4-{4-[(2R)-2-Hydroxy-2-(4-hydroxy-3-methanesulfonylamino-phenyl)-ethylamino]-piperidin-1-yl}-benzoylamino)-3-methyl-butyric acid]", "IA(β3)": 1.1},
      {"compound": "COC(=O)COc1ccc(S(=O)(=O)Nc2ccc(N3CCC(NC[C@H](O)c4ccc(Cl)c(NS(C)(=O)=O)c4)CC3)cc2)cc1", "note": "[Example 319, Methyl{4-[(4-{4-[((2R)-2-{4-chloro-3-[(methylsulfonyl)amino]phenyl}-2-hydroxyethyl)amino]-1-piperidinyl}anilino)sulfonyl]phenoxy}acetate]", "IA(β3)": 0.79},
      {"compound": "CC(=O)Nc1ccc(S(=O)(=O)Nc2ccc(N3CCC(NC[C@H](O)COc4cccc5[nH]c(=O)[nH]c45)CC3)cc2)cc1", "note": "[Example 274]", "IA(β3)": 1.15},
      {"compound": "O=c1[nH]c2cccc(OC[C@@H](O)CNC3CCN(c4ccc(NS(=O)(=O)c5sc(Cl)cc5Br)cc4)CC3)c2[nH]1", "note": "[Example 286, 3-Bromo-5-chloro-N-{4-[4-({(2S)-2-hydroxy-3-[(2-oxo-2,3-dihydro-1H-benzimidazol-4-yl)oxy]propyl}amino)-1-piperidinyl]phenyl}-2-thiophenesulfonamide]", "IA(β3)": 0.91},
      {"compound": "COc1ccc(S(=O)(=O)Nc2ccc(N3CCC(NCC(O)c4ccc(O)c(NS(C)(=O)=O)c4)CC3)cc2)cc1OC", "note": "(centres unmarked) [Example 280, N-(4-{4-[(2-Hydroxy-2-{4-hydroxy-3-[(methylsulfonyl)amino]phenyl}ethyl)amino]-1-piperidinyl}phenyl)-3,4-dimethoxybenzenesulfonamide]", "IA(β3)": 1.16},
      {"compound": "O=c1[nH]c2cccc(OC[C@@H](O)CNC3CCN(c4ccc(NS(=O)(=O)c5cc(Cl)c(Oc6ccc([N+](=O)[O-])cc6Cl)c(Cl)c5)cc4)CC3)c2[nH]1", "note": "[Example 352, 3,5-Dichloro-4-(2-chloro-4-nitrophenoxy)-N-{4-[4-({(2S)-2-hydroxy-3-[(2-oxo-2,3-dihydro-1H-benzimidazol-4-yl)oxy]propyl}amino)-1-piperidinyl]phenyl}-benzenesulfonamide]", "IA(β3)": 1.02},
      {"compound": "COc1ccc(S(=O)(=O)Nc2ccc(N3CCC(NC[C@H](O)c4ccccc4)CC3)cc2)cc1", "note": "[Example 261, N-[4-(4-{[(2R)-2-Hydroxy-2-phenylethyl]amino}-1-piperidinyl)phenyl]-4-methoxybenzenesulfonamide]", "IA(β3)": 0.73},
      {"compound": "CCOC(=O)CC(=O)Nc1ccc(N2CCC(NC[C@H](O)c3ccc(O)c(NS(C)(=O)=O)c3)CC2)cc1", "note": "[Example 371, Ethyl 3-(4-{4-[((2R)-2-hydroxy-2-{4-hydroxy-3-[(methylsulfonyl)amino]phenyl}-ethyl)-amino]-1-piperidinyl}anilino)-3-oxopropanoate]", "IA(β3)": 0.91},
      {"compound": "O=c1[nH]c2cccc(OC[C@@H](O)CNC3CCN(c4ccc(NS(=O)(=O)c5ccc(Oc6ncc(C(F)(F)F)cc6Cl)cc5)cc4)CC3)c2[nH]1", "note": "[Example 350, 4-{[3-Chloro-5-(trifluoromethyl)-2-pyridinyl]oxy}-N-{4-[4-({(2S)-2-hydroxy-3-[(2-oxo-2,3-dihydro-1H-benzimidazol-4-yl)oxy]propyl}amino)-1-piperidinyl]phenyl}-benzenesulfonamide]", "IA(β3)": 1.26},
      {"compound": "CCCCN(c1ccc(N2CCC(NC[C@H](O)c3ccc(O)c(NS(C)(=O)=O)c3)CC2)cc1)S(=O)(=O)CC(=O)OCc1ccccc1", "note": "[Example 324, Benzyl[(butyl-4-{4-[((2R)-2-hydroxy-2-{4-hydroxy-3-[(methylsulfonyl)amino]phenyl}-ethyl)amino]-1-piperidinyl)anilino)sulfonyl}acetate]", "IA(β3)": 0.9},
      {"compound": "CS(=O)(=O)Nc1cc([C@@H](O)CNC2CCN(c3ccc(NS(=O)(=O)CC(=O)OCc4ccccc4)cc3)CC2)ccc1O", "note": "[Example 322, Benzyl[(4-{4-[((2R)-2-hydroxy-2-{4-hydroxy-3-[(methylsulfonyl)amino]phenyl}-ethyl)amino]-1-piperidinyl}anilino)sulfonyl]acetate]", "IA(β3)": 0.89},
      {"compound": "CS(=O)(=O)Nc1cc(C(O)CNC2CCN(c3ccc(NS(=O)(=O)c4ccc(-n5nnn(CCCC6CCCC6)c5=O)cc4)cc3)CC2)ccc1O", "note": "(centres unmarked) [Example 288, 4-[4-(3-Cyclopentyl-propyl)-5-oxo-4,5-dihydro-tetrazol-1-yl]-N-(4-{4-[2-hydroxy-2-(4-hydroxy-3-methanesulfonylamino-phenyl)-ethaylamino]-piperidin-1-yl}-phenyl)-benzenesulfonamide]", "IA(β3)": 1.24},
      {"compound": "O=C(NCc1ccc(S(=O)(=O)Nc2ccc(N3CCC(NC[C@H](O)COc4ccccc4)CC3)cc2)s1)c1ccccc1", "note": "[Example 348]", "IA(β3)": 0.63},
      {"compound": "CCCCS(=O)(=O)Nc1ccc(N2CCC(NC[C@H](O)COc3cccc4[nH]c(=O)[nH]c34)CC2)cc1", "note": "[Example 296, N-{4-[4-({(2S)-2-Hydroxy-3-[(2-oxo-2,3-dihydro-1H-benzimidazol-4-yl)oxy]propyl}amino)-1-piperidinyl]phenyl}-1-butanesulfonamide]", "IA(β3)": 0.81},
      {"compound": "CCCCS(=O)(=O)Nc1ccc(N2CCC(NCC(O)c3ccc(O)c(NS(C)(=O)=O)c3)CC2)cc1", "note": "(centres unmarked) [Example 295, N-(4-{4-[(2-Hydroxy-2-{4-hydroxy-3-[(methylsulfonyl)amino]phenyl}ethyl)amino]-1-piperidinyl}phenyl)-1-butanesulfonamide]", "IA(β3)": 0.87},
      {"compound": "CCCCCCCCS(=O)(=O)Nc1ccc(N2CCC(NC[C@H](O)COc3cccc4[nH]c(=O)[nH]c34)CC2)cc1", "note": "[Example 298, N-{4-[4-({(2S)-2-Hydroxy-3-[(2-oxo-2,3-dihydro-1H-benzimidazol-4-yl)oxy]propyl}amino)-1-piperidinyl]phenyl}-1-octanesulfonamide]", "IA(β3)": 0.78},
      {"compound": "CCCCCCNC(=O)Nc1ccc(S(=O)(=O)Nc2ccc(N3CCC(NCC(O)c4ccc(C)nc4)CC3)cc2)cc1", "note": "(centres unmarked) [Example 271, 4-{[(Hexylamino)carbonyl]amino}-N-[4-(4-{[2-hydroxy-2-(6-methyl-3-pyridinyl)ethyl]amino}-1-piperidinyl)phenyl]benzenesulfonamide]", "IA(β3)": 0.84},
      {"compound": "CS(=O)(=O)Nc1cc([C@@H](O)CNC2CCN(c3ccc(NC(=O)NCC(=O)O)cc3)CC2)ccc1O", "note": "[Example 378, {[(4-{4-[((2R)-2-Hydroxy-2-{4-hydroxy-3-[(methylsulfonyl)amino]phenyl}ethyl)amino]-1-piperidinyl}anilino)carbonyl]amino}acetic acid]", "IA(β3)": 0.94},
      {"compound": "CC(=O)Nc1ccc(S(=O)(=O)Nc2ccc(N3CCC(NCC(O)c4ccc(O)c(NS(C)(=O)=O)c4)CC3)cc2)cc1", "note": "(centres unmarked) [Example 270, N-{4-[(4-{4-[(2-Hydroxy-2-{4-hydroxy-3-[(methylsulfonyl)amino]phenyl}ethyl)amino]-1-piperidinyl}anilino)sulfonyl]phenyl}acetamide]", "IA(β3)": 1.09},
      {"compound": "O=C1NC(=O)C(Cc2ccc(N3CCC(NC[C@H](O)COc4cccc5[nH]c(=O)[nH]c45)CC3)c(F)c2)S1", "note": "(stereo partly drawn) [Example 67, 5-(3-Fluoro-4-{4-[(2S)-2-hydroxy-3-(2-oxo-2,3-dihydro-1H-benzoimidazol-4-yloxy)-propylamino]-piperidin-1-yl}-benzyl)-thiazolidine-2,4-dione]", "IA(β3)": 1.06},
      {"compound": "O=S(=O)(Nc1ccc(N2CCC(NC[C@H](O)COc3ccc(O)cc3)CC2)cc1)c1ccc(S(=O)(=O)c2ccc(C(F)(F)F)cn2)s1", "note": "[Example 300, N-[4-(4-{[(2S)-2-Hydroxy-3-(4-hydroxyphenoxy)propyl]amino}-1-piperidinyl)phenyl]-5-{[5-(trifluoromethyl)-2-pyridinyl]sulfonyl}-2-thiophenesulfonamide]", "IA(β3)": 0.78},
      {"compound": "COc1ccc(S(=O)(=O)Nc2ccc(N3CCC(NC[C@H](O)COc4ccc(O)cc4)CC3)cc2)cc1OC", "note": "[Example 279, N-[4-(4-{[(2S)-2-Hydroxy-3-(4-hydroxyphenoxy)propyl]amino}-1-piperidinyl)phenyl]-3,4-dimethoxybenzenesulfonamide]", "IA(β3)": 0.74},
      {"compound": "CCOC(=O)c1ccc(N2CCC(NC[C@H](O)c3cccc(Cl)c3)CC2)cc1.Cl", "note": "[Example 181, {4-[(2R)-2-(3-Chloro-phenyl)-2-hydroxy-ethylamino]-piperidin-1-yl}-benzoic acid ethyl ester hydrochloride]", "IA(β3)": 0.56}
    ]}
  ]
}
